Values joined by “and” are separate entries in the source; they are usually repeats but may differ in a detail not shown here. Equal values may be shown once. Read-outs that look alike come from different tables or passages of the source. Bridge positions count the residues as written; N and C are the ends. Ends that are not written are not given here. Peptide text beside a SMILES is read from it.
How the values were obtained:
sPHGDH (1-307) = target: T1, sPHGDH (1-307) (Homo sapiens, UniProt O43175); assay: sPHGDH enzyme activity assay (NADH fluorescence); assay type: biochemical; details: sPHGDH; 12 h pre-incubation; read-out: IC50 Value
T1 construct: the truncated version of PHGDH (sPHGDH, 1-307); made in house
T1 sequence (O43175 1-307): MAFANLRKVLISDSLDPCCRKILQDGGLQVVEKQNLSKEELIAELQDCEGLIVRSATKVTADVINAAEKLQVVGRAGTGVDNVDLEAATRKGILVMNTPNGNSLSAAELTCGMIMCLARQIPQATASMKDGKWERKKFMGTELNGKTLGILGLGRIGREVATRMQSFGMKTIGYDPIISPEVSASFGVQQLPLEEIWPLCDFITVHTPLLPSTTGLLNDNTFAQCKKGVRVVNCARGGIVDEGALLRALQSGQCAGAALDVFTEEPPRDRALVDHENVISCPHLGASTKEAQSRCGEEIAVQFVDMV
Protocol: (§1) PHGDH activity in the presence of peptides was measured in 96-well plates (100 μL per well) at 25 °C, through monitoring the NADH fluorescence (excitation at 360 nm and emission at 460 nm) over time. PAST1 and its substrate glutamate were also included in order to prevent product inhibition. In the enzyme assays, protein expression and purification, including the truncated version of PHGDH (sPHGDH, 1-307), the full-length PHGDH (1-533), and PAST1, were carried out as described in our previous papers. To evaluate the effects of peptides on enzyme activity, the peptides were pre-incubated with enzyme samples (sPHGDH 453.3 nM or PHGDH 30.9 nM) in the assay buffer (HEPES 50 mM, pH 7.5, 10 mM MgCl2, and 1 mM EDTA) for 12 h. Then, 1.98 μM PAST1, 1 mM NAD^+, and 30 mM glutamate were added and pre-incubated for 10 min before initiating the enzyme reaction via the addition of the substrate (1 mM 3-PG). Fluorescence signals were recorded for 3 min with the kinetics-reading mode of the Biotek plate reader (Synergy). IC50 values were obtained through fitting the data using a three-parameter Hill model of the graph of log dose against the percentage inhibition from three repeated experiments. For those peptides containing two disulfide bonds, a second step of oxidation reaction was carried out to generate the second disulfide pair. […] The purified Acm-protected peptide was then treated with iodine (I2, 1 wt% in MeOH), dropwise under acidic conditions until the solution became brown.

sPHGDH = target: T2, sPHGDH (Homo sapiens, UniProt O43175); assay: Microscale Thermophoresis (MST) binding assay
T2 construct: the truncated version of PHGDH (sPHGDH, 1-307); made in house
T2 sequence (O43175 1-307): T1 sequence (O43175 1-307)
Protocol: In this study, we first used Microscale Thermophoresis assays (MST) to evaluate whether the active peptides found in the enzyme inhibition assay directly bind sPHGDH (Table 2).
The binding affinity between the recombinant sPHGDH and cyclic peptides was measured with a NanoTemper Monolith NT.115 instrument (NanoTemper Technologies, Munich, Germany). sPHGDH was first adjusted to a concentration of 10 μM and then labeled with Monolith™ NT.115 Protein Labeling Kit RED-NHS (NanoTemper Technologies, Germany), according to the protocol of the manufacturer. After the protein labeling experiment was completed, sPHGDH was diluted with binding buffer (50 mM HEPES, pH 7.5, 1 mM EDTA, 10 mM MgCl2, 100 mM NaCl, and 0.005% Tween 20) to ensure that the fluorescent intensity of sPHGDH during the MST assay was about 500 RU. In this assay, the final concentration of sPHGDH after mixing with the peptide was 20 nM. Subsequently, the peptides were serially diluted in binding buffer (16 points, 1:2 dilutions, from 0.5 mM), then mixed and incubated with an equal volume of diluted sPHGDH at room temperature for 16 h. After incubation, the samples were loaded into premium treated capillaries and measured by the NanoTemper Monolith NT.115 instrument (NanoTemper Technologies, Germany). […]

[1] = target: T3, full-length PHGDH (1-533) (Homo sapiens, UniProt O43175); assay: full-length PHGDH enzyme activity assay (NADH fluorescence); assay type: biochemical; details: IC50 value (μM), full-length PHGDH activity
T3 construct: the full-length PHGDH (1-533); made in house
T3 sequence (O43175 1-533): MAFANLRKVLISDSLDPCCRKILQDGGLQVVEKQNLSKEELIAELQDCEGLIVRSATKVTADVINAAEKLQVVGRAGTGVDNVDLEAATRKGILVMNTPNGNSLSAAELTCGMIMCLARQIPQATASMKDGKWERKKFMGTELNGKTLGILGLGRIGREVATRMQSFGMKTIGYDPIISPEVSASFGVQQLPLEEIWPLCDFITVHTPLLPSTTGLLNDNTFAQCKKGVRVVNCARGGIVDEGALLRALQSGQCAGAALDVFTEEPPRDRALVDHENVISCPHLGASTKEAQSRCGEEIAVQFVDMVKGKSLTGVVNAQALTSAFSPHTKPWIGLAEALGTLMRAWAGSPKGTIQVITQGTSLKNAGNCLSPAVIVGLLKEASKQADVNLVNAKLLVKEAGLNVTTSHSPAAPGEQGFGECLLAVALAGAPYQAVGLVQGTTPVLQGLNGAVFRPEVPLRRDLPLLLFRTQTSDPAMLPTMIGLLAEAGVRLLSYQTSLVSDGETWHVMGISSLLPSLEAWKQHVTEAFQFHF
Protocol: as §1

[2] = target: truncated version of PHGDH (sPHGDH, 1-307) (human) (UniProt O43175)
[3] = target: truncated version of PHGDH (sPHGDH, 1-307) (human) (UniProt O43175); remark: listed apart in the source
[4] = target: the molecule itself; assay: cross-linking; sPHGDH 5 µM with peptides (0, 10, 50, 100, 250, 500 µM) and 2.5 mM BS3 in PBS (40 mM, pH 7.3), 25 °C, 30 min; SDS/PAGE; dimer to monomers

## CSCC[C@@H]1NC(=O)[C@H](CO)NC(=O)[C@H](CC(C)C)NC(=O)[C@H]([C@@H](C)O)NC(=O)[C@H](C)NC(=O)[C@H](CCC(N)=O)NC(=O)[C@@H]2CCCN2C(=O)[C@H]([C@@H](C)O)NC(=O)[C@@H](NC(C)=O)CSSC[C@@H](C(=O)O)NC(=O)[C@H](CCCCN)NC(=O)[C@H](CCCCN)NC(=O)[C@H](CCC(N)=O)NC(=O)[C@H](CCC(=O)O)NC(=O)[C@H](Cc2c[nH]c3ccccc23)NC(=O)[C@H](CO)NC(=O)CNC(=O)[C@H](CC(N)=O)NC(=O)[C@H](CCCCN)NC1=O [Cyc1-12, C1TPQA TLSMK NGSWE QKKC19] (Ac-CTPQATLSMKNGSWEQKKC-OH; disulfide 1-19)
sPHGDH (1-307)
  IC50: 5.6 ± 1.4 µM
sPHGDH; MST, sPHGDH 20 nM, 1:1 binding mode, read-out: KD
  Kd: 13.4 ± 3.1 µM

## CSCC[C@@H]1NC(=O)[C@@H]2CSSC[C@H](NC(=O)[C@H](Cc3c[nH]c4ccccc34)NC(=O)[C@H](CCCCN)NC(=O)CNC(=O)[C@H](CC(=O)O)NC(=O)[C@H](CCCNC(=N)N)NC1=O)C(=O)N[C@@H](CCCNC(=N)N)C(=O)N[C@@H](CCCCN)C(=O)N[C@@H](CCCCN)C(=O)N[C@H](C(=O)O)CSSC[C@H](NC(C)=O)C(=O)N[C@@H]([C@@H](C)O)C(=O)N1CCC[C@H]1C(=O)N[C@@H](CCC(N)=O)C(=O)N[C@@H](C)C(=O)N[C@@H]([C@@H](C)O)C(=O)N[C@@H](C)C(=O)N2 [Cyc2-3, C1TPQA TAC8MR DGKWC15 RKKC19] (Ac-CTPQATACMRDGKWCRKKC-OH; disulfide 1-19, 8-15)
[1]
  IC50: 53.1 µM and 32.9 µM
sPHGDH
  Kd: 5.1 ± 1 µM

B1: cyclic peptide cyc1-5 (peptide)
peptide: CTPQATASMLDGKWEWKKC
modifications: disulfide 1-19; not fully specified (N-terminus); printed as C_1_TPQA TASML DGKWE WKKC_19_
[2]
  IC50 of inhibition of sPHGDH enzyme activity (NADH fluorescence); the pair blocked is the sPHGDH homo-dimer (m1+m1): 13.4 µM
[3]
  IC50 of inhibition of sPHGDH enzyme activity (NADH fluorescence); the pair blocked is the sPHGDH homo-dimer (m1+m1), differs from the table: 13.7 µM

B2: truncated version of PHGDH (sPHGDH, 1-307) (domain or fragment, human, UniProt O43175 1-307, looked up)
chain: T1 sequence (O43175 1-307)
modifications: labelled with Monolith NT.115 Protein Labeling Kit RED-NHS (in the MST assay only)
notes: human phosphoglycerate dehydrogenase (PHGDH), catalytic unit, residues 1-307; Exists predominantly as a homo-dimer with a small fraction of monomer; also called catalytic unit of PHGDH; source: recombinant
[4]
  stoichiometry N: 2

Source: publication PMC10563079 (Molecules, 2023)
